pIC50: −log10 of the molar value.
Target: T1, PAK4 (Homo sapiens, UniProt O96013)
T1 construct: purchased Reaction Biology Corporation (Malvern, PA, USA)
Assay: HotSpot kinase assay (Reaction Biology Corp.), PAK4 enzyme inhibition
Assay type: biochemical
Details: ATP 10 μM; for inhibition at 20 µM: relative percentage inhibition at 20 μM of compounds with staurosporine, read-out: PAK4 enzyme inhibition % inhibitory activity; for pIC50: 10-dose, 3-fold serial dilution starting at 100 μM
Description: To examine the enzyme activity, HotSpot kinase assay was performed at Reaction Biology Corporation (Malvern, PA, USA). The kinase and substrate pairs were prepared in reaction buffer: 20 mM HEPES at pH 7.5, 10 mM MgCl2, 1 mM EGTA, 0.02% Brij 35, 0.02 mg/mL BSA, 0.1 mM Na3VO4, 2 mM DTT, and 1% DMSO. Compounds were added into the kinase reaction mixture and incubated for 20 min. Then, ^32 P-ATP was introduced to the mixture to initiate the reaction carried out at 10 μM of ATP concentration. After 2 h at room temperature, the mixture was spotted onto P81 ion exchange paper and kinase activity was then evaluated utilising the filter-binding method. Compounds were tested for single dose enzyme inhibition at a concentration of 20 μM. For the control compound, staurosporine was tested in a 10-dose IC50 mode. To determine the IC50 value, the compounds were tested for 10-doses with 3-fold serial dilution starting at 100 μM.
Synthesised compounds were evaluated for their in vitro PAK4 enzyme inhibitory activities. In vitro kinase assays were performed using HotSpot kinase assays for relative enzyme inhibitory activity at a single concentration (20 μM) and IC50 assessment at an ATP concentration of 10 μM (Figure 1(B)). […] For the allosteric pocket binder, cyclohexyl group (SPA7012) was preferable to the smaller dimethyl (SPA7011) or hydroxymethyl group (SPA7013), and the aromatic ring (SPA7014) reduced activity compared to the saturated ring (SPA7012). In vitro enzyme IC50 values appeared in the order of SPA7012, SPA7017, and SPA7016. […] Molecular docking analysis was performed on the human PAK4 catalytic domain structure complexed with GNE-2861 (PDB code: 4O0V). The binding pose of SPA7012 overlapped well with the crystal structure of GNE-2861, with the allosteric binder properly positioned in the specific back pocket. The oxygen atom in the tertiary alcohol of the hydrophobic allosteric binder formed hydrogen bonds with the backbone of Phe459 and the side chain of Glu366 (Figure 1(D)). The amine group and nitrogen atom in the pyrazolo[3,4-d]pyrimidine core scaffold also formed hydrogen bonds with Lue398 at the hinge region. Finally, SPA7012 was decided as a lead compound for further examination with satisfactory potency and subtype selectivity.

T1 sequence (O96013 whole entry): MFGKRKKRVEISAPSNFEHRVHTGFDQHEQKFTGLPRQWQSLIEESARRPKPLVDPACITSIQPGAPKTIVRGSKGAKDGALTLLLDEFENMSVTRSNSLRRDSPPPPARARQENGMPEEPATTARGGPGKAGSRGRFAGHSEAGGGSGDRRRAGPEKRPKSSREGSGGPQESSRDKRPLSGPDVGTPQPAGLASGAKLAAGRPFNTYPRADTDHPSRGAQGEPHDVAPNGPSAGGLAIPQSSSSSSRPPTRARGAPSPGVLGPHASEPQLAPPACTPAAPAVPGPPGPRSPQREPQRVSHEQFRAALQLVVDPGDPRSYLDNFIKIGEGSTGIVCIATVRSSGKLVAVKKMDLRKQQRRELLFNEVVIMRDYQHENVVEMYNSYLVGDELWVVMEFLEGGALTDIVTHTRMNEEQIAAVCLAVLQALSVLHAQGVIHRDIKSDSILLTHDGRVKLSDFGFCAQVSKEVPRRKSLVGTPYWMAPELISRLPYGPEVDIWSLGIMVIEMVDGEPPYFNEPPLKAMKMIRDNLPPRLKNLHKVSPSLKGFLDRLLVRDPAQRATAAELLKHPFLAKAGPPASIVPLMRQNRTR

Row | SMILES | inhibition at 20 µM [%] | pIC50
1 | CC(C)(O)C#Cc1cccc(-n2c3ccccc3c3c(N)nccc32)c1 [Compound 10a, 4–(3–(1-Aminopyrido[4,3-b]indol-5-yl)phenyl)-2-methylbutyn-2-ol] | 32 | –
2 | CC(O)(C#Cc1cccc(-n2c3ccccc3c3c(N)nccc32)c1)CO (centres unmarked) [Compound 10c, 4–(3-(1-Aminopyrido[4,3-b]indol-5-yl)phenyl)-2-methylbutyn-1,2-diol] | 29 | –
3 | Nc1nccc2c1c1ccccc1n2-c1cccc(C#CC2(O)CCCCC2)c1 [Compound 10b, 3-(1-Aminopyrido[4,3-b]indol-5-yl)phenylethynylcyclohexan-1-ol] | 54 | 4.47

The next lines start with the values.

Row | inhibition at 20 µM [%] | pIC50 | SMILES
4 | 88 | 5.00 | Nc1ncnc2c1c(CCCN1CCOCC1)nn2-c1cccc(C#CC2(O)CCCCC2)c1 [Compound 18a, (3–(4-Amino-3–(3-morpholin-4-ylpropyl)pyrazolo[3,4-d]pyrimidin-1-yl)phenylethynyl)cyclohexanol]
5 | 36 | – | Cc1nn(-c2cccc(C#CC(C)(O)CO)c2)c2ncnc(N)c12 (centres unmarked) [Compound 14c, 4–(3-(4-Amino-3-methylpyrazolo[3,4-d]pyrimidin-1-yl)phenyl)-2-methylbutyn-1,2-diol]
6 | 90 | 5.36 | Nc1ncnc2c1c(CCCN1CCCCC1)nn2-c1cccc(C#CC2(O)CCCCC2)c1 [Compound 18b, (3-[4-Amino-3–(3-piperidin-1-ylpropyl)pyrazolo[3,4-d]pyrimidin-1-yl]phenylethynyl)cyclohexanol]
7 | 65 | – | Cc1nn(-c2cccc(C#CC(C)(O)c3ccccc3)c2)c2ncnc(N)c12 (centres unmarked) [Compound 14d, 4–(3-(4-Amino-3-methylpyrazolo[3,4-d]pyrimidin-1-yl)phenyl)-2-phenylbutyn-2-ol]
8 | 60 | – | Cc1nn(-c2cccc(C#CC(C)(C)O)c2)c2ncnc(N)c12 [Compound 14a, 4–(3–(4-Amino-3-methylpyrazolo[3,4-d]pyrimidin-1-yl)phenyl)-2-methylbutyn-2-ol]
